Test results taken from patent US20260262643A1, “HERBICIDAL BENZOXAZINES” (FMC CORPORATION, priority 2022, published 2026).

Assays:
[1] = test system: ragweed; assay: Test A preemergence; assay type: in vivo, Ambrosia artemisiifolia
Procedure, shortened: (§1)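 Greenhouse pot test, 10 days. Compound (non-phytotoxic solvent, surfactant) sprayed on soil at seeding or on seedlings at one- to two-leaf stage. Visual injury rated 0–100 against untreated plants.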

[2] = test system: blackgrass; assay: Test A postemergence; assay type: in vivo, Alopecurus myosuroides
Procedure, shortened: as §1

[3] = test system: kochia; assay: Test A preemergence; assay type: in vivo, Bassia scoparia
Procedure, shortened: as §1

[4] = test system: rice; assay: Test B flooded paddy test; assay type: in vivo, Oryza sativa; details: 250 g ai/ha, Flood, 13 days, 0 to 100 scale (0 no effect, 100 complete control)
Procedure, shortened: (§2)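 Visual scores from 0 (no effect) to 100 (complete kill) were assigned 13 days after treatment by comparison with controls. Seedlings had been treated at two leaves by adding compound to floodwater standing 3 cm deep, kept at that level in the greenhouse.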

[5] = test system: galium; assay: Test A postemergence; assay type: in vivo, Galium aparine
Procedure, shortened: as §1

[6] = test system: ragweed; assay: Test A postemergence; assay type: in vivo, Ambrosia artemisiifolia
Procedure, shortened: as §1

[7] = test system: kochia; assay: Test A postemergence; assay type: in vivo, Bassia scoparia
Procedure, shortened: as §1

[8] = test system: oat, wild; assay: Test A preemergence; assay type: in vivo, Avena fatua
Excerpt: (§3) Seeds of plant species selected from barnyardgrass (Echinochloa crusgalli), blackgrass (Alopecurus myosuroides), corn (Zea mays), foxtail, giant (giant foxtail, Setaria faberi), goosegrass (Eleusine indica), kochia (Bassia scoparia), oat, wild (wild oat, Avena fatua), pigweed, palmer (palmer amaranth, palmer pigweed, Amaranthus palmeri), Pigweed, Redroot (redroot pigweed, Amaranthus retroflexus), ragweed (common ragweed, Ambrosia artemisiifolia), ryegrass, Italian (italian ryegrass, Lolium multiflorum), soybean (Glycine max), and wheat (Triticum aestivum) were planted into a blend of loam soil and sand and treated preemergence with a directed soil spray using test chemicals formulated in a non-phytotoxic solvent mixture which included a surfactant. At the same time, plants selected from these crops and weed species and also galium (catchweed bedstraw, Galium aparine) and horseweed (Erigeron canadensis) were planted in pots containing the same blend of loam soil and sand and treated with postemergence applications of test chemicals formulated in the same manner. Plants ranged in height from 2 to 10 cm and were in the one- to two-leaf stage for the postemergence treatment. Treated plants and untreated controls were maintained in a greenhouse for 10 days, after which time all treated plants were compared to untreated controls and visually evaluated for injury. Plant response ratings, summarized in Table A, are based on a 0 to 100 scale where 0 is no effect and 100 is complete control. A dash (-) response means no test result.

[9] = test system: oat, wild; assay: Test A postemergence; assay type: in vivo, Avena fatua
Excerpt: as §3

[10] = test system: ducksalad; assay: Test B flooded paddy test; assay type: in vivo, Heteranthera limosa; details: 250 g ai/ha, Flood, 13 days, 0 to 100 scale (0 no effect, 100 complete control)
Procedure, shortened: as §2

[11] = test system: soybean; assay: Test A postemergence; assay type: in vivo, Glycine max
Excerpt: as §3

[12] = test system: blackgrass; assay: Test A preemergence; assay type: in vivo, Alopecurus myosuroides
Procedure, shortened: as §1

[13] = test system: ryegrass, Italian; assay: Test A postemergence; assay type: in vivo, Lolium multiflorum
Procedure, shortened: as §1

[14] = test system: corn; assay: Test A preemergence; assay type: in vivo, Zea mays
Excerpt: as §3

[15] = test system: wheat; assay: Test A preemergence; assay type: in vivo, Triticum aestivum
Excerpt: as §3

[16] = test system: foxtail, giant; assay: Test A preemergence; assay type: in vivo, Setaria faberi
Procedure, shortened: as §1

[17] = test system: foxtail, giant; assay: Test A postemergence; assay type: in vivo, Setaria faberi
Procedure, shortened: as §1

[18] = test system: wheat; assay: Test A postemergence; assay type: in vivo, Triticum aestivum
Excerpt: as §3

[19] = test system: goosegrass; assay: Test A postemergence; assay type: in vivo, Eleusine indica
Procedure, shortened: as §1

[20] = test system: pigweed, palmer; assay: Test A preemergence; assay type: in vivo, Amaranthus palmeri
Procedure, shortened: as §1

[21] = test system: ryegrass, Italian; assay: Test A preemergence; assay type: in vivo, Lolium multiflorum
Procedure, shortened: as §1

[22] = test system: sedge, umbrella; assay: Test B flooded paddy test; assay type: in vivo, Cyperus difformis; details: 250 g ai/ha, Flood, 13 days, 0 to 100 scale (0 no effect, 100 complete control)
Procedure, shortened: as §2

[23] = test system: goosegrass; assay: Test A preemergence; assay type: in vivo, Eleusine indica
Procedure, shortened: as §1

[24] = test system: corn; assay: Test A postemergence; assay type: in vivo, Zea mays
Excerpt: as §3

[25] = test system: soybean; assay: Test A preemergence; assay type: in vivo, Glycine max
Excerpt: as §3

[26] = test system: pigweed, palmer; assay: Test A postemergence; assay type: in vivo, Amaranthus palmeri
Procedure, shortened: as §1

[27] = test system: barnyardgrass; assay: Test B flooded paddy test; assay type: in vivo, Echinochloa crus-galli; details: 250 g ai/ha, Flood, 13 days, 0 to 100 scale (0 no effect, 100 complete control)
Procedure, shortened: as §2

[28] = 125 g ai/ha, visual injury after 10 days, 0 to 100 scale, 0 is no effect, 100 is complete control
[29] = 500 g ai/ha, 0 to 100 scale (0 no effect, 100 complete control), 10 days
[30] = 125 g ai/ha, postemergence, 10 days, visual injury, 0 to 100 scale (0 no effect, 100 complete control)
[31] = 500 g ai/ha, Postemergence, 0 to 100 scale

Cc1ccc(C(=O)N2CC(C)Oc3c(Cl)cccc32)cc1-n1cncn1 (stereo not drawn) [Compound 38]
30: Plant response rating, Kochia [3, 29] | Plant response rating, Galium [5, 30] | Plant response rating, Blackgrass [12, 28] | Plant response rating, Corn [14, 29] | Plant response rating, Goosegrass [19, 30] | Plant response rating, Soybean [25, 29] | Plant response rating, Pigweed, Palmer [26, 30]
20: Plant response rating, Kochia [7, 30] | Plant response rating, Corn [14, 28] | Plant response rating, Corn [24, 30]
90: Plant response rating, Foxtail, Giant [17, 31]
50: Plant response rating, Galium [5, 31] | Plant response rating, Soybean [11, 31] | Plant response rating, Pigweed, Palmer [26, 31]
40: Plant response rating, Oat, Wild [9, 31]
0: Plant response rating, Ragweed [1, 28] | Plant response rating, Ragweed [1, 29] | Plant response rating, Blackgrass [2, 30] | Plant response rating, Kochia [3, 28] | Plant response rating, Rice [4] | Plant response rating, Ragweed [6, 30] | Plant response rating, Ragweed [6, 31] | Plant response rating, Oat, Wild [9, 30] | Plant response rating, Ducksalad [10] | Plant response rating, Wheat [15, 28] | Plant response rating, Sedge, Umbrella [22] | Plant response rating, Soybean [25, 28] | Plant response rating, Barnyardgrass [27]
80: Plant response rating, Ryegrass, Italian [21, 29] | Plant response rating, Corn [24, 31]
100: Plant response rating, Foxtail, Giant [16, 29] | Plant response rating, Goosegrass [23, 29]
10: Plant response rating, Oat, Wild [8, 28] | Plant response rating, Ryegrass, Italian [13, 30] | Plant response rating, Wheat [15, 29] | Plant response rating, Wheat [18, 30] | Plant response rating, Pigweed, Palmer [20, 28]
70: Plant response rating, Blackgrass [2, 31] | Plant response rating, Blackgrass [12, 29] | Plant response rating, Foxtail, Giant [16, 28] | Plant response rating, Wheat [18, 31] | Plant response rating, Goosegrass [19, 31] | Plant response rating, Pigweed, Palmer [20, 29] | Plant response rating, Ryegrass, Italian [21, 28] | Plant response rating, Goosegrass [23, 28]
60: Plant response rating, Kochia [7, 31] | Plant response rating, Oat, Wild [8, 29] | Plant response rating, Ryegrass, Italian [13, 31] | Plant response rating, Foxtail, Giant [17, 30]

C[C@H]1CN(C(=O)c2cccc(-n3cncn3)c2)c2cccc(C(F)(F)F)c2O1 [Compound 47]
50: Plant response rating, Kochia [3, 29] | Plant response rating, Kochia [7, 30]
0: Plant response rating, Ragweed [1, 28] | Plant response rating, Ragweed [1, 29] | Plant response rating, Kochia [3, 28] | Plant response rating, Rice [4] | Plant response rating, Ragweed [6, 30] | Plant response rating, Ragweed [6, 31] | Plant response rating, Ducksalad [10] | Plant response rating, Corn [14, 28] | Plant response rating, Corn [14, 29] | Plant response rating, Wheat [15, 28] | Plant response rating, Goosegrass [19, 30] | Plant response rating, Sedge, Umbrella [22] | Plant response rating, Soybean [25, 28] | Plant response rating, Barnyardgrass [27]
100: Plant response rating, Soybean [11, 31] | Plant response rating, Goosegrass [23, 29]
70: Plant response rating, Blackgrass [12, 28] | Plant response rating, Pigweed, Palmer [26, 30]
60: Plant response rating, Blackgrass [2, 31] | Plant response rating, Galium [5, 30] | Plant response rating, Foxtail, Giant [16, 28] | Plant response rating, Pigweed, Palmer [20, 28] | Plant response rating, Corn [24, 31]
90: Plant response rating, Galium [5, 31] | Plant response rating, Kochia [7, 31] | Plant response rating, Blackgrass [12, 29] | Plant response rating, Ryegrass, Italian [13, 31] | Plant response rating, Foxtail, Giant [16, 29] | Plant response rating, Foxtail, Giant [17, 31] | Plant response rating, Pigweed, Palmer [20, 29] | Plant response rating, Ryegrass, Italian [21, 29] | Plant response rating, Pigweed, Palmer [26, 31]
30: Plant response rating, Oat, Wild [8, 29] | Plant response rating, Oat, Wild [9, 31] | Plant response rating, Ryegrass, Italian [13, 30] | Plant response rating, Foxtail, Giant [17, 30] | Plant response rating, Corn [24, 30]
10: Plant response rating, Blackgrass [2, 30] | Plant response rating, Oat, Wild [8, 28] | Plant response rating, Oat, Wild [9, 30]
40: Plant response rating, Wheat [18, 31] | Plant response rating, Soybean [25, 29]
80: Plant response rating, Soybean [11, 30] | Plant response rating, Ryegrass, Italian [21, 28] | Plant response rating, Goosegrass [23, 28]
20: Plant response rating, Wheat [15, 29] | Plant response rating, Wheat [18, 30] | Plant response rating, Goosegrass [19, 31]
